Results as given in US20260001886A1, “ENPP1 INHIBITORS I” (RE Ventures I, LLC, priority 2024, published 2026).

Experiments:
Human ENPP1 = Human ENPP1 (Homo sapiens (Human), UniProt P22413); test: biochemical
Method: ENPP1 catalyses the hydrolysis of ATP into AMP+PPi. AMP production was monitored using Bellbrooks Transcreener AMP/GMP TR-FRET assay kit (Cat No. 3020-10K) according to the manufacturer's instructions. The assay was run with 50 mM Tris pH 7.5, 5 mM MgCl2, 150 mM NaCl, 0.005% Tween20 and distilled H2O. Antibody and tracer were diluted to 2 nM. […] Mouse ENPP1 was run at 15 pM with ATP at 400 nM. AMP produced in the assay by ENPP1 activity competes with a far-red tracer labelled AMP bound to an AMP specific antibody resulting in a decrease in TR-FRET. ENPP1 inhibition reduces AMP production and increases the TR-FRET signal.

human CA-I (CA1) = human CA-I (CA1) (Homo sapiens (Human), UniProt P00915); test: biochemical
Method: (§1) Cytiva Biacore S200, T200 and 3000 machines were used for all SPR experiments. […] For carbonic anhydrases, data were collected at a constant temperature of 25° C. Human CA-I (CA1) or human CA-II (CA2) was captured via standard EDC/NHS protocol on a Biacore CM5 chip using standard protocols in HBS-N buffer (10 mM HEPES (pH 7.4), 150 mM NaCl) at ˜2000 RU. The experiments were run in PBS buffer containing 0.05% Tween 20 and 3% DMSO. All compounds were initially screened at concentrations ranging from 23 nM to 50 µM or 4.6 nM to 10 µM, injecting from the lowest to highest concentrations and adjusting appropriately for each compound for repeat experiments. Scrubber 2 (Biologic software) was used to process and analyse SPR data. […] Data for the inhibitors were referenced to those for a blank surface and blank injections to normalise for non-specific binding and drift. A DMSO calibration was run to remove excluded volume effect of binding responses between reference and target surface.

human CA-II (CA2) = human CA-II (CA2) (Homo sapiens (Human), UniProt P00918); test: biochemical
Method: as §1

[1] = target: ENPP1 expressed by MCF-7 cells (Homo sapiens (Human), UniProt P22413); test: cell-based
Method: ENPP1 inhibition was assessed in a human cellular co-culture assay using THP1-Dual interferon reporter cells from InvivoGen (Cat No. thpd-nfis), see Goswami et al., 2022, and MCF-7 cancer cells.
MCF-7 cells were seeded at 10,000 cells/well in a 96 well plate and 24 h later compounds were added in DMEM+GlutaMAX media+2% Hyclone FBS, with a final DMSO of 0.2%. 2′3′-cGAMP was added at a final concentration of 10 μM and incubated for 30 mins at 37° C. 20,000 THP-1 cells were added per well and incubated for 48 h. IFN response was measured by Quanti-Luc Gold according to the manufacturer's instructions using 15 μL Quanti-Luc Gold per well. Luminescence was measured on an EnSight reader (PerkinElmer).

Alpl^Prx1 mouse = test: In vivo Model 1: Alpl^Prx1 mouse model of hypophosphatasia (HPP)
Method: Bone tissues were fixed in 4% PFA.
PPi levels were measured using a standard method involving ATPsulfurylase. […] ATP converted from PPi in the samples was mixed with BacTiter-Glo (Promega) and luminescence was quantified in duplicated reactions using a iD3X plate reader (Molecular Device). Values obtained from reactions without ATPsulfurylase were subtracted to eliminate ATP which possibly existed in the plasma samples.
Plasma chemistry was performed using Vetscan VS2 analyzer with Comprehensive Diagnostic Profiles rotor (Abaxis). […] Mouse OPN was measured with Quantikine®-ELISA kit (R&D).
Radiographic images were obtained by using XPERT 80-Kubtec Scientific.
Three stained sections per mouse were analyzed by Keyence microscope to obtain an average value of mineralized area. Five mice per genotype were used (n=5).

[2] = oral in diet, after 100 days of dosing

Sequence of Human ENPP1 (P22413 whole entry): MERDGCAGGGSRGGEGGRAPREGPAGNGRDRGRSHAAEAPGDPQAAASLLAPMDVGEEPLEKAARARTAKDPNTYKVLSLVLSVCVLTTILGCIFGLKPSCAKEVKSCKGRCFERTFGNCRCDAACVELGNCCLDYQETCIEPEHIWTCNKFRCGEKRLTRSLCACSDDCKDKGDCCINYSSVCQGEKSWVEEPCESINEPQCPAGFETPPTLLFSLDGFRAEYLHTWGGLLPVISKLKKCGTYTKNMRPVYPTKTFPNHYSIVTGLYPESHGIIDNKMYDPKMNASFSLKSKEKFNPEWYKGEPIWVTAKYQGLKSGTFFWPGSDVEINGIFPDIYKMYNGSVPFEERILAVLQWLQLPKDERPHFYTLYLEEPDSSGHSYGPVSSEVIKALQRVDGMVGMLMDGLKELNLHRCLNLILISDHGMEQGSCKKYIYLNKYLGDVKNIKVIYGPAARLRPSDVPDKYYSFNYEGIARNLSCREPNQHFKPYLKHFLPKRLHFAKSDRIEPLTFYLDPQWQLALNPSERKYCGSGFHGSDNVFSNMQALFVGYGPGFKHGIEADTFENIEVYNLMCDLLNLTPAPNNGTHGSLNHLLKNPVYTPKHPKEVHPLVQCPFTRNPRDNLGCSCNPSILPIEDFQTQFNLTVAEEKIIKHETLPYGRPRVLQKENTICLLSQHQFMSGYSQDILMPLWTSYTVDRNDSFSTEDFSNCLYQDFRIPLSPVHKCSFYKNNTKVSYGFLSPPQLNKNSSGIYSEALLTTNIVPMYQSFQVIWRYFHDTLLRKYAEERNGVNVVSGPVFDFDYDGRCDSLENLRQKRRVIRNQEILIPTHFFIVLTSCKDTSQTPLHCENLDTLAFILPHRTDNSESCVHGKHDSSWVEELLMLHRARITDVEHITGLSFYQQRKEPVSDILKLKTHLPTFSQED
Sequence of human CA-I (CA1) (P00915 whole entry): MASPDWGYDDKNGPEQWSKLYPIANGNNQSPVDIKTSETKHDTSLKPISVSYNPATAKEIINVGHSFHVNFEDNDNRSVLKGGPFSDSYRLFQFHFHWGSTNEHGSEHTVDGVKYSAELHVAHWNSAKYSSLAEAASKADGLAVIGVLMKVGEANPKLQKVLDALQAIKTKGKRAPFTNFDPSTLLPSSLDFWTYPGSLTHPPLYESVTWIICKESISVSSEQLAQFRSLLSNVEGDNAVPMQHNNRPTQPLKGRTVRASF
Sequence of ENPP1 expressed by MCF-7 cells (P22413 whole entry): as the sequence (P22413 whole entry) above

Compound	EC50 (Human ENPP1)	Kd (human CA-I (CA1))	Kd (human CA-II (CA2))	further results
Cc1cc(Cn2cc(C(C)C)c(=O)n3nc(C4CC4)cc23)ccc1S(C)(=N)=O (racemic) [58 Rac]	0.002 µM	> 100000 µM	–	–
CC(C)c1cn(Cc2ccc(S(N)(=O)=O)cc2)c2nc(C3CC3)nn2c1=O [Compound 11, 4-((2-cyclopropyl-6-isopropyl-7-oxo-[1,2,4]triazolo[1,5-a]pyrimidin-4(7H)-yl)methyl)benzenesulfonamide]	–	–	–	Bone mineralization of the bone cortex (X-ray, tibia / knee joints) (Alpl^Prx1 mouse; male and female mice, oral in diet, 100 days): increased bone mineralization; Plasma chemistry (significant changes; transaminase, amylase, BUN, Ca) (Alpl^Prx1 mouse; male mice, WT, control and treated): only observed between WT and HPP mice; Mineralization of L3 vertebrate bone (bone morphometry, Von Kossa) (Alpl^Prx1 mouse; oral in diet, 100 days): increased to the levels of wild-type mice; Mineralization of trabecular bones of the distal femur (bone morphometry, Von Kossa) (Alpl^Prx1 mouse; oral in diet, 100 days): slight improvement in mineralization; Plasma AP levels (Alpl^Prx1 mouse; [2]): did not affect; Plasma OPN levels (Alpl^Prx1 mouse; [2]): did not affect; Plasma PPi levels (Alpl^Prx1 mouse; [2]): reduced to the levels of WT mice

Now from value to compound, other results behind:

EC50 (Human ENPP1)	Kd (human CA-I (CA1))	Kd (human CA-II (CA2))	Compound	further results
0.00251 µM	–	31.6 µM	CCS(=N)(=O)c1ccc(Cn2cc(C(C)C)c(=O)n3nc(C4CC4)nc23)cc1 (racemic) [56 Rac]	–
0.00631 µM	> 100000 µM	> 100000 µM	CC(C)c1cn(Cc2ccc(S(C)(=N)=O)cc2)c2nc(CC(F)(F)F)nn2c1=O (single isomer, unassigned) [Compound 32A]	EC50 [1]: 0.0794 µM
0.00794 µM	> 100000 µM	> 100000 µM	CC(C)c1cn(Cc2ccc(S(C)(=N)=O)cc2)c2nc(CC(F)(F)F)nn2c1=O (racemic) [32 Rac]	–
